From paper PMC5387716, “Discovery of monocarbonyl curcumin-BTP hybrids as STAT3 inhibitors for drug-sensitive and drug-resistant breast cancer therapy” (Scientific Reports, 2017)

Key:
Assay type in all cases: cell-based, human
STAT1 = test: IFN-γ induced STAT1 phosphorylation (western blot); details: MCF-7, 0.5–4 μM, 6 h, IFN-γ 50 ng/mL 30 min; compared with effect on IL-6-induced p-STAT3
Bcl-2 gene = test: Quantitative real-time RT-PCR of Bcl-2; details: 24 h
Method: Levels of mRNA expression were analyzed with the RT-PCR assay, with total RNA isolated from MCF-7 or MCF-7/DOX cells using an EASYspin Plus tissue/cell RNA extraction kit (Aidlab Biotechnologies Co. Ltd). RNA was quantified by measuring absorption at 260 nm and 1 μg of RNA was reverse transcribed to cDNA using the Transcriptor First Strand cDNA Synthesis Kit (Roche Diagnostics, Basel, Switzerland). Thermal cycling conditions included 95 °C initial denaturation for 5 min, followed by 40 cycles of denaturation (10 s at 95 °C), annealing (15 s at 60 °C) and extension (15 s at 72 °C with a single fluorescence measurement), a melt curve program (60–95 °C with a 0.11 °C/s heat increase and continuous fluorescence measurement) and a cooling step to 40 °C. The Δ cycle threshold method was used for the calculation of relative differences in mRNA abundance with a LightCycler 480 (Roche Molecular Biochemicals, Mannheim, Germany). The data were normalized to the expression of GAPDH. The results were expressed as fold-changes. The RT-PCR primers that were used in this study are listed in the supporting information.

Erk1/2 = test: Western blot of p-Erk1/2; details: MCF-7 and MCF-7/DOX cells, 24 h
Method: (§1) MCF-7 or MCF-7/DOX cells were incubated with various concentrations of 6b for 24 h. After trypsinization, cells were treated with 1× RIPA lysis buffer (50 mM Tris–HCl, pH 7.4, 150 mM NaCl, 0.25% deoxycholic acid, 1% NP-40, 1 mM EDTA and protease inhibitors) (Amresco, Solon, USA) to extract the total proteins. An aliquot of proteins from the total cell lysates (30 to 60 μg/lane) was separated by sodium dodecyl sulfate (10%) polyacrylamide gel electrophoresis (SDS–PAGE, Bio-Rad Laboratories, Hercules, CA), wet-transferred to NC membrane (Bio-Rad Laboratories, Hercules, CA) and blotted with primary antibodies specific for STAT3, p-STAT3, p-Jak2, Jak2, p-Src, Src, Erk, P-Erk, PARP, cleaved PARP, Bcl-2, Bax, Cyclin D1, P-gp and GAPDH. Bound immuno-complexes were detected using ChemiDOC™ XRS + system (Bio-Rad Laboratories, Hercules, CA).

MCF-10A cells = test: MTT anti-proliferative assay, MCF-10A; details: 48 h, normal breast epithelial cells, Table 2 prints no unit, μM
Method: All cell lines were purchased from Cell Bank of Shanghai Institute of Biochemistry and Cell Biology, Chinese Academy of Sciences (Shanghai, China). Human breast carcinoma cells (MCF-7 and MCF-7/DOX), breast epithelial cells (MCF-10A) and normal human liver cells (LO2) were maintained in RPMI-1640 medium. All cells were supplemented with 12% fetal bovine serum containing 50 μg/ml penicillin and 50 μg/ml streptomycin. Cells were grown to 80% confluency in a tissue culture flask at 37 °C in a humidified atmosphere containing 5% CO2, and then were trypsinized with 1 × Trypsin-Versene and split. The MCF-7/DOX cell line we used was established from its parental cell line MCF-7 cell by gradually increasing the concentration of DOX to which the cells were exposed in a stepwise manner over a period of 8 months. […] The cells were incubated in drug-free medium for at least 1 week before use.
Cells (MCF-7, MCF-7/DOX, MCF-10A, LO2) were seeded in 96-well plates at a density of 3,000–6,000 cells per well. The cells were incubated overnight (16 h) in a humidified 5% CO2 incubator at 37 °C. After media removal, different concentrations of test compounds were added in triplicate to the plates in 200 μL of fresh media and were incubated with the cells at 37 °C for 48 h. […] Cell viability was evaluated using 3-(4, 5-dimethylthiazolyl)-2,5-diphenyltetrazoliumbromide (MTT). The absorbance was read by an ELISA reader (SpectraMax Plus384, Molecular Devices, Sunnyvale, CA) at a test wavelength of 570 nm and a reference wavelength of 630 nm. Cell viability was calculated using the following formula: […]

MCF-7 cells = test: Colony survival assay, MCF-7; details: 24 h treatment, 14 d culture
Method: MCF-7 or MCF-7/DOX cells were cultured a 6-well plate at a density of 800–1,000 cells/well with regular growth medium. Cells were treated for 24 h with the vehicle and 6b at 0.15–1 μM on the following day. Cells were allowed to grow for 10–14 d until colonies were visible. Crystal violet solution (Sigma, St. Louis, MO, USA) was used to stain the colonies for 4 hours and colonies were imaged.

STAT3 [1] = test: Western blot of STAT3 phosphorylation; details: MCF-7 and MCF-7/DOX cells
Method: as §1

STAT3 [2] = test: Immunofluorescence of p-STAT3 nuclear translocation; details: MCF-7 cells, 6 h then IL-6 50 ng/ml 30 min
Method: The basic protocol for the analysis of p-STAT3 subcellular location has been previously described. Briefly, MCF-7 cells were starved overnight, followed by incubation with 6b for 6 h. Cells were then stimulated with 50 ng/ml IL-6 for 30 min before being harvested in Tris-buffered saline (TBS) containing 1 mM sodium orthovanadate. Cells were transferred to polylysine-coated slides by cytospin and air dried for 20 min at room temperature. After being fixed in 2% of paraformaldehyde for 10 min and permeabilized in 0.1% Triton X-100 for 5 min, cells were blocked in TBS containing 5% bovine serum albumin for 1 h at room temperature before being stained with p-STAT3 (Tyr705) overnight at 4 °C. Then, cells were gently washed and incubated with FITC–conjugated, goat, anti-rabbit IgG (Beyotime Biotechnology Ltd). Finally, slides were incubated with 5 μg/ml of 4′,6-diamidino-2-phenylindole (DAPI, Beyotime) for 5 min. The subcellular location and relative abundance of p-STAT3 were immediately analyzed with an ImageXpress Micro Confocal analysis.

COc1ccc(/C=C/C(=O)N2CCN(C(=O)C3=Cc4cc(Br)ccc4S3(=O)=O)CC2)cc1 [Compound 6b, (E)-1-(4-(5-bromo-1,1-dioxidobenzo[b]thiophene-2-carbonyl)piperazin-1-yl)-3-(4-methoxyphenyl)prop-2-en-1-one]
IFN-γ-induced STAT1 phosphorylation (STAT1): less of an effect
decrease in the gene expression level of Bcl-2 (Bcl-2 gene; MCF-7/DOX cells, 1.0 μM): 27.5%
decrease in the gene expression level of Bcl-2 (Bcl-2 gene; MCF-7/DOX cells, 2.0 μM): 43.5%
decrease in the gene expression level of Bcl-2 (Bcl-2 gene; MCF-7/DOX cells, 4.0 μM): 71.0%
Bcl-2 gene level (in words) (Bcl-2 gene; MCF-7 and MCF-7/DOX cells): decreased in a dose-dependent manner
decrease in the gene expression level of Bcl-2 (Bcl-2 gene; MCF-7 cells, 1.0 μM): 11.7%
decrease in the gene expression level of Bcl-2 (Bcl-2 gene; MCF-7 cells, 2.0 μM): 45.8%
decrease in the gene expression level of Bcl-2 (Bcl-2 gene; MCF-7 cells, 4.0 μM): 61.2%
p-Erk1/2 expression (Erk1/2): little effect
IC50 (MCF-10A cells): 7.72 ± 0.56 µM
IC50 (MCF-10A cells; Homo sapiens, MCF-10A): 7.7 µM
clonogenic ability / colony formation (MCF-7 cells; MCF-7, 0.25 μM): significant reduction in clonogenic ability
clonogenic ability / colony formation (MCF-7 cells; MCF-7, 0.5 μM): almost a cessation of colony formation
p-STAT3 level (STAT3 [1]; 1.0 μM): significantly inhibited
STAT3 phosphorylation at the Ser727 residue (STAT3 [1]; 24 h): little effect
STAT3 phosphorylation at the pTyr705 residue (STAT3 [1]; 24 h): dose-dependent inhibition
total STAT3 protein level (STAT3 [1]; 24 h): little effect
p-STAT3 level in the nucleus (STAT3 [2]): sharp decrease
